Data: article PMC12635268, “Novel antimicrobial peptides and peptide-microbiome crosstalk in Appalachian salamander skin” (NPJ Biofilms and Microbiomes, 2025)
Like-named read-outs stand apart in the source and are kept apart here. Peptide text beside a SMILES is read from it.

Tests used:
A. baumannii 5075 = conditions: Week 1 (12/6/2023)
[1] = set-up: method as in Biomatik (vendor); conditions: 1.0 mg peptide in 1.0 ml solvent; peptides synthesized by Biomatik; ref Biomatik (vendor); cited from earlier work
E. faecium ATCC 19434 = assay: microbe, parasite or virus in culture
Procedure: (§1) Antimicrobial susceptibility testing of the 20 synthesized peptides against 17 bacterial strains of clinical relevance in the ESKAPEE panel was conducted using minimum inhibitory concentration (MIC) assays following the broth microdilution method outlined by Parker et al.[91]. The ESKAPEE panel is comprised of fourteen American Type Culture Collection (ATCC) strains and three Multidrug Resistant Organism Repository and Surveillance Network (MRSN) bacterial strains. These strains represent at least one drug-susceptible strain and one drug-resistant strain for each bacterium to assess drug efficacy across various resistance mechanisms. This panel is comprised of the following bacterial species and strains: E. faecium (ATCC 19434, ATCC 49224), S. aureus (ATCC 25923, ATCC 43300), K. pneumoniae (ATCC 700603, ATCC 13883, MRSN 1320), A. baumannii (ATCC 17978, ATCC 19606, MRSN 959), P. aeruginosa (ATCC 15692, ATCC 27853, MRSN 5519), E. cloacae (ATCC 13047, ATCC 35549), and E. coli (ATCC 35218, ATCC 43888). Bacteria were grown in cation-adjusted Mueller-Hinton broth (CAMHB) to achieve a final inoculum of 1 × 10⁵ CFU/mL. CAMHB is selected for its batch-to-batch reproducibility, low levels of antimicrobial inhibitors, and ability to support the growth of most bacterial pathogens.
(§2) Briefly, lyophilized peptides were dissolved in 0.2% TFA + 0.4% BSA in water to 2.56 mg/mL, ultrasonicated for 20 min, diluted 10-fold into CAMHB, and then serially diluted 2-fold in 0.02% TFA + 0.04% BSA in CAMHB and assayed at a concentration of 0.25 to 128 μg/mL. Assays were set up using the Tecan Freedom EVO liquid handling robot and software (Tecan, Switzerland) with 50 μL of bacterial inoculum and 50 μL of peptide transferred into round-bottom 96-well microtiter plates. Each plate assay was performed in duplicate and incubated at 37 °C for 20 h without agitation. Bacterial growth was assessed using the BIOMIC V3 Image Analysis system (Giles Scientific, USA) and the MIC values were determined visually according to the Clinical and Laboratory Standards Institute (CLSI) guidelines.

P. aeruginosa MRSN 5519 = assay: microbe, parasite or virus in culture
Procedure: as §1, §2

E. cloacae ATCC 13047 = assay: microbe, parasite or virus in culture
Procedure: as §1, §2

E. cloacae ATCC 35549 = assay: microbe, parasite or virus in culture
Procedure: as §1, §2

A. baumannii ATCC 17978 = assay: microbe, parasite or virus in culture
Procedure: as §1, §2

S. aureus ATCC 25923 = assay: microbe, parasite or virus in culture
Procedure: as §1, §2

K. pneumoniae ATCC 13883 = assay: microbe, parasite or virus in culture
Procedure: as §1, §2

E. faecium ATCC 49224 = assay: microbe, parasite or virus in culture
Procedure: as §1, §2

A. baumannii ATCC 19606 = assay: microbe, parasite or virus in culture
Procedure: as §1, §2

E. coli ATCC 35218 = assay: microbe, parasite or virus in culture; conditions: E. coli 35218; Week 1 (12/6/2023)
Procedure: as §1, §2

P. aeruginosa ATCC 27853 = assay: microbe, parasite or virus in culture
Procedure: as §1, §2

[2] = system: K. pneumoniae ATCC 700603; assay: microbe, parasite or virus in culture; conditions: K. pneumoniae 700603; Week 1 (12/6/2023)
Procedure: as §1, §2

S. aureus ATCC 43300 = assay: microbe, parasite or virus in culture; conditions: S. aureus 43300; Week 1 (12/6/2023)
Procedure: as §1, §2

E. coli ATCC 43888 = assay: microbe, parasite or virus in culture
Procedure: as §1, §2

P. aeruginosa PA01 (Si) = assay: microbe, parasite or virus in culture; type: cell-based
From the text: Supplement 41522_2025_837_MOESM13_ESM.xlsx, sheet "Table_S13_ESKAPEE-MIC" | column: Bacterial MIC (µg/mL)

SMILES	Bacterial MIC (A. baumannii 5075)	Suggest solvent (solubility) [1]	Bacterial MIC (E. coli ATCC 35218)	Bacterial MIC [2]	Bacterial MIC (S. aureus ATCC 43300)	Bacterial MIC (K. pneumoniae 4640; 4640, 20 h)	Bacterial MIC (E. faecium ATCC 19434; ATCC 19434, 20 h)	Bacterial MIC (P. aeruginosa MRSN 5519; MRSN 5519, 20 h)	Bacterial MIC (E. cloacae ATCC 13047; ATCC 13047, 20 h)	Bacterial MIC (E. cloacae ATCC 35549; ATCC 35549, 20 h)	Bacterial MIC (A. baumannii ATCC 17978; ATCC 17978, 20 h)	Bacterial MIC (S. aureus ATCC 25923; ATCC 25923, 20 h)	Bacterial MIC (K. pneumoniae ATCC 13883; ATCC 13883, 20 h)	Bacterial MIC (E. faecium ATCC 49224; ATCC 49224, 20 h)	Bacterial MIC (A. baumannii ATCC 19606; ATCC 19606, 20 h)	Bacterial MIC (P. aeruginosa ATCC 27853; ATCC 27853, 20 h)	Bacterial MIC (E. coli ATCC 43888; ATCC 43888, 20 h)	Bacterial MIC (P. aeruginosa PA01 (Si); Si)	further results
N=C(N)NCCC[C@H](N)C(=O)N1CCC[C@H]1C(=O)N1CCC[C@H]1C(=O)NCC(=O)N[C@@H](Cc1ccccc1)C(=O)N[C@@H](CO)C(=O)N1CCC[C@H]1C(=O)N[C@@H](Cc1ccccc1)C(=O)O [PrMb-Eb14]	>128.000 mg/L	1.0mg peptide soluble in 1.0ml H2O	>128.000 mg/L	>128.000 mg/L	>128.000 mg/L	–	–	–	–	–	–	–	–	–	–	–	–	–	Bacterial MIC (K. pneumoniae 4640; K. pneumoniae 4640, Week 1 (12/6/2023)): >128.000 mg/L; Bacterial MIC (E. faecium ATCC 19434; E. faecium 19434, Week 1 (12/6/2023)): >128.000 mg/L; Bacterial MIC (P. aeruginosa MRSN 5519; P. aeruginosa 5519, Week 1 (12/6/2023)): >128.000 mg/L; Bacterial MIC (E. cloacae ATCC 13047; E. cloacae 13047, Week 1 (12/6/2023)): >128.000 mg/L; Bacterial MIC (E. cloacae ATCC 35549; E. cloacae 35549, Week 1 (12/6/2023)): >128.000 mg/L; Bacterial MIC (A. baumannii ATCC 17978; A. baumannii 17978, Week 1 (12/6/2023)): >128.000 mg/L; Bacterial MIC (S. aureus ATCC 25923; S. aureus 25923, Week 1 (12/6/2023)): >128.000 mg/L; Bacterial MIC (K. pneumoniae ATCC 13883; K. pneumoniae 13883, Week 1 (12/6/2023)): >128.000 mg/L; Bacterial MIC (E. faecium ATCC 49224; E. faecium 49224, Week 1 (12/6/2023)): >128.000 mg/L; Bacterial MIC (A. baumannii ATCC 19606; A. baumannii 19606, Week 1 (12/6/2023)): >128.000 mg/L; Bacterial MIC (P. aeruginosa ATCC 27853; P. aeruginosa 27853, Week 1 (12/6/2023)): >128.000 mg/L; Bacterial MIC (E. coli ATCC 43888; E. coli 43888, Week 1 (12/6/2023)): >128.000 mg/L; Bacterial MIC (P. aeruginosa PA01 (Si); P. aeruginosa PA01 (Si), not typical ESKAPEE strain, Week 1 (12/6/2023)): >128.000 mg/L
CC[C@H](C)[C@H](N)C(=O)N[C@@H](CC(C)C)C(=O)N[C@@H](CCCNC(=N)N)C(=O)N[C@@H](CCCCN)C(=O)N1CCC[C@H]1C(=O)N[C@@H](CCC(=O)O)C(=O)N[C@@H](CCCCN)C(=O)N[C@@H](CC(=O)O)C(=O)N[C@@H](CC(=O)O)C(=O)N[C@@H](CC(=O)O)C(=O)N[C@H](C(=O)N[C@@H](CO)C(=O)N[C@@H](CO)C(=O)N[C@@H](CCCNC(=N)N)C(=O)N[C@H](C(=O)NCC(=O)N[C@@H](Cc1ccc(O)cc1)C(=O)N[C@@H](CC(C)C)C(=O)N[C@@H](Cc1ccccc1)C(=O)N[C@@H](CS)C(=O)N[C@@H](CS)C(=O)N[C@@H](CCCCN)C(=O)N[C@@H](CCSC)C(=O)N[C@@H](CCCNC(=N)N)C(=O)N[C@@H](CC(C)C)C(=O)N[C@@H](CS)C(=O)N[C@@H](C)C(=O)N[C@@H](CS)C(=O)N[C@@H](CCCNC(=N)N)C(=O)N[C@@H](CCCNC(=N)N)C(=O)N[C@@H](CO)C(=O)O)[C@@H](C)CC)[C@@H](C)O [Tr-Eb4] (H-ILRKPEKDDDTSSRIGYLFCCKMRLCACRRS-OH; N-terminus and C-terminus assumed)	–	1.0mg peptide soluble in 1.0ml DMSO	–	–	–	>128.000 mg/L	>128.000 mg/L	>128.000 mg/L	>128.000 mg/L	>128.000 mg/L	>128.000 mg/L	>128.000 mg/L	>128.000 mg/L	>128.000 mg/L	>128.000 mg/L	>128.000 mg/L	>128.000 mg/L	>128.000 mg/L	–
CC[C@H](C)[C@H](NC(=O)[C@H](CCSC)NC(=O)[C@H](CS)NC(=O)[C@H](CC(C)C)NC(=O)[C@@H](NC(=O)[C@H](CS)NC(=O)[C@H](CS)NC(=O)[C@H](CCSC)NC(=O)[C@H](CS)NC(=O)[C@H](CO)NC(=O)[C@H](CC(C)C)NC(=O)[C@H](CCC(N)=O)NC(=O)[C@H](CCCCN)NC(=O)[C@H](Cc1c[nH]cn1)NC(=O)[C@H](CCC(N)=O)NC(=O)[C@H](Cc1c[nH]c2ccccc12)NC(=O)[C@@H](NC(=O)[C@@H](NC(=O)[C@H](CCC(=O)O)NC(=O)[C@@H](NC(=O)[C@H](CC(=O)O)NC(=O)[C@@H](NC(=O)[C@H](CC(C)C)NC(=O)[C@H](CC(=O)O)NC(=O)[C@@H](N)CCCCN)[C@@H](C)CC)[C@@H](C)O)[C@@H](C)O)[C@@H](C)O)C(C)C)C(=O)N[C@@H](C)C(=O)N[C@@H](CCCCN)C(=O)N[C@@H](CCCNC(=N)N)C(=O)N[C@@H](CS)C(=O)N[C@@H](CS)C(=O)O [Tr-Pc15] (H-KDLIDTETTWQHKQLSCMCCVLCMIAKRCC-OH; N-terminus and C-terminus assumed)	–	1.0mg peptide soluble in 1.0ml DMSO	–	–	–	>128.000 mg/L	>128.000 mg/L	>128.000 mg/L	>128.000 mg/L	>128.000 mg/L	>128.000 mg/L	>128.000 mg/L	>128.000 mg/L	>128.000 mg/L	>128.000 mg/L	>128.000 mg/L	>128.000 mg/L	>128.000 mg/L	–
CC[C@H](C)[C@H](NC(=O)[C@H](CO)NC(=O)[C@H](CO)NC(=O)[C@H](Cc1ccccc1)NC(=O)[C@H](CS)NC(=O)CNC(=O)[C@@H]1CCCN1C(=O)[C@H](CCCNC(=N)N)NC(=O)[C@H](CCCNC(=N)N)NC(=O)CNC(=O)[C@H](CS)NC(=O)[C@H](CCCNC(=N)N)NC(=O)[C@H](CCCNC(=N)N)NC(=O)[C@@H]1CCCN1C(=O)[C@H](C)NC(=O)CNC(=O)[C@H](CCCNC(=N)N)NC(=O)[C@@H](NC(=O)[C@H](CC(C)C)NC(=O)[C@H](CCCNC(=N)N)NC(=O)[C@@H](NC(=O)CNC(=O)[C@H](CCCNC(=N)N)NC(=O)[C@H](CCCCN)NC(=O)[C@@H](NC(=O)[C@H](Cc1c[nH]cn1)NC(=O)[C@@H](NC(=O)[C@@H](N)CCC(=O)O)[C@@H](C)CC)[C@@H](C)O)[C@@H](C)O)C(C)C)C(=O)NCC(=O)N[C@@H](CCCCN)C(=O)N[C@H](C(=O)N[C@@H](CCC(=O)O)C(=O)O)C(C)C [TrPr-Eb2] (H-EIHTKRGTRLVRGAPRRCGRRPGCFSSIGKVE-OH; N-terminus and C-terminus assumed)	>128.000 mg/L	1.0mg peptide soluble in 1.0ml H2O	>128.000 mg/L	>128.000 mg/L	>128.000 mg/L	>128.000 mg/L	>128.000 mg/L	>128.000 mg/L	>128.000 mg/L	>128.000 mg/L	>128.000 mg/L	>128.000 mg/L	>128.000 mg/L	>128.000 mg/L	>128.000 mg/L	>128.000 mg/L	>128.000 mg/L	>128.000 mg/L	–
